PubChem BioAssay (NCI)
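Five compound concentrations were applied to cells in 96-well plates for 48 hours; endpoints were derived by simple linear interpolation of the resulting dose-response curve. GI50 = concentration required for 50% inhibition of growth. TGI: total growth inhibition.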 Where a SMILES comes first, the peptide text is derived from it. The star is where a group is joined. Boc = CC(C)(C)OC(=O)*; Bn = c1ccc(C*)cc1

Experiments:
Assay in all cases: NCI tumour cell line growth inhibition, 48 h
MOLT-4 leukemia = system: MOLT-4 leukemia
SF-295 CNS = system: SF-295 CNS
HT29 colon = system: HT29 colon
HL-60(TB) leukemia = system: HL-60(TB) leukemia
HCT-15 colon = system: HCT-15 colon
NCI/ADR-RES ovarian = system: NCI/ADR-RES ovarian
HOP-62 NSCLC = system: HOP-62 NSCLC
SK-MEL-28 melanoma = system: SK-MEL-28 melanoma
UACC-62 melanoma = system: UACC-62 melanoma
HS 578T breast = system: HS 578T breast
OVCAR-3 ovarian = system: OVCAR-3 ovarian
TK-10 renal = system: TK-10 renal

Compound | TGI (MOLT-4 leukemia) | TGI (SF-295 CNS) | TGI (HT29 colon) | TGI (HL-60(TB) leukemia) | TGI (HCT-15 colon) | TGI (NCI/ADR-RES ovarian) | TGI (HOP-62 NSCLC) | TGI (SK-MEL-28 melanoma) | TGI (UACC-62 melanoma) | TGI (HS 578T breast) | TGI (OVCAR-3 ovarian) | TGI (TK-10 renal) | GI50 (SF-295 CNS) | GI50 (HL-60(TB) leukemia) | GI50 (OVCAR-3 ovarian)
CC1(Cc2cc3c(cc2C2(c4ccc([N+](=O)[O-])cc4)OCCO2)OCO3)OCCO1 | > 100 µM | > 100 µM | > 100 µM | > 100 µM | > 100 µM | > 100 µM | > 100 µM | > 100 µM | > 100 µM | > 100 µM | > 100 µM | > 100 µM | – | – | –
O=C1OC(C2Cc3ccc4c(c3C2=O)CCCC4)c2ccccc21 (centres undefined) | 47.5 µM | > 100 µM | > 100 µM | > 100 µM | > 100 µM | > 100 µM | > 100 µM | > 100 µM | 69.9 µM | 82 µM | 88.2 µM | > 100 µM | – | – | –
Cc1ccccc1C1CC(=O)CC(c2ccccc2C)C12C(=O)NC(=S)NC2=O (centres undefined) | > 100 µM | > 100 µM | 54.3 µM | 59.2 µM | 56.6 µM | > 100 µM | > 100 µM | 44.5 µM | 38.2 µM | 97.2 µM | 82.8 µM | > 100 µM | – | – | –
CC(C)N(C(=O)C12C3(C(=O)C(C)(C)C)C4C5(C#N)C3C1(C(=O)C(C)(C)C)C5C42C(=O)C(C)(C)C)C(C)C (centres undefined) | > 100 µM | > 100 µM | > 100 µM | > 100 µM | > 100 µM | > 100 µM | > 100 µM | > 100 µM | > 100 µM | > 100 µM | > 100 µM | > 100 µM | – | – | –
O=c1cc(-c2ccc3ccccc3c2)[nH]c2ncccc12 | > 100 µM | > 100 µM | > 100 µM | 4.55 µM | > 100 µM | > 100 µM | > 100 µM | > 100 µM | > 100 µM | > 100 µM | > 100 µM | > 100 µM | 9.19 µM | 1.8 µM | 8.25 µM
CCC1(CC)C(=O)NN(C(=O)c2ccc(Cl)cc2)C1=O | > 100 µM | > 100 µM | > 100 µM | > 100 µM | > 100 µM | > 100 µM | > 100 µM | > 100 µM | > 100 µM | > 100 µM | > 100 µM | > 100 µM | – | – | –
Cc1ccc(C2=Nn3c(nc4sc5c(c4c3=O)CCCC5)SC2)cc1 | > 100 µM | > 100 µM | > 100 µM | > 100 µM | > 100 µM | > 100 µM | > 100 µM | > 100 µM | > 100 µM | > 100 µM | > 100 µM | > 100 µM | – | – | –
CC(C)(C)OC(=O)NCC(=O)N(CCc1ccc(Cl)c(Cl)c1)CCN1CCCC1 | 28.5 µM | 33.1 µM | 23.7 µM | 30.4 µM | 37.4 µM | 36.7 µM | 27.7 µM | 29.7 µM | 32.2 µM | 46.5 µM | 32.2 µM | 31.5 µM | – | – | –
[O-]/[N+](=N/c1ncc(-c2ccccc2)cn1)c1ncc(-c2ccccc2)cn1 | > 100 µM | > 100 µM | > 100 µM | > 100 µM | > 100 µM | > 100 µM | > 100 µM | > 100 µM | > 100 µM | > 100 µM | > 100 µM | > 100 µM | – | – | –
CCNC1=C(NC(=O)c2ccc(OC)cc2)C(=O)c2ccccc2C1=O | > 100 µM | > 100 µM | 76.9 µM | > 100 µM | > 100 µM | 99.5 µM | > 100 µM | > 100 µM | > 100 µM | > 100 µM | 87.7 µM | > 100 µM | – | – | –
CC(=O)c1c2c(cc3c1CC1(C3)Cc3cc4c(c(C(C)=O)c3C1)CCCC4)CCCC2 | 76.5 µM | > 100 µM | > 100 µM | 40 µM | > 100 µM | > 100 µM | > 100 µM | – | > 100 µM | > 100 µM | > 100 µM | > 100 µM | – | – | –
O=C(/C=C/c1ccc(O)cc1)c1cc(-c2cc(CCC(=O)c3ccc(O)cc3O)ccc2O)c(O)cc1O | > 50 µM | > 50 µM | 35.8 µM | > 50 µM | > 50 µM | > 50 µM | > 50 µM | > 50 µM | > 50 µM | > 50 µM | > 50 µM | > 50 µM | – | – | –
COc1ccc(C(c2cc(OC)c(OC)c(OC)c2)N2C(=O)CCC2C(=O)O)cc1 (centres undefined) | > 100 µM | 66.4 µM | > 100 µM | > 100 µM | > 100 µM | > 100 µM | > 100 µM | > 100 µM | > 100 µM | > 100 µM | > 100 µM | > 100 µM | – | – | –
CC1=NN(C(=O)CC(=O)Nc2ccc(Cl)cc2)C(=O)C1N=Nc1ccc(S(=O)(=O)c2ccc(N=NC3C(=O)N(C(=O)CC(=O)Nc4ccc(Cl)cc4)N=C3C)cc2)cc1 (centres undefined) | > 100 µM | > 100 µM | > 100 µM | > 100 µM | > 100 µM | > 100 µM | > 100 µM | > 100 µM | > 100 µM | > 100 µM | > 100 µM | 79.1 µM | – | – | –
CC(=O)c1sc2n(C)c(=O)c3ccccc3[n+]2c1C | > 100 µM | > 100 µM | > 100 µM | > 100 µM | > 100 µM | > 100 µM | > 100 µM | > 100 µM | > 100 µM | > 100 µM | > 100 µM | > 100 µM | – | – | –
COC(=O)/C=C1/OC(c2ccc(C)cc2C)=CC1=O | > 100 µM | – | 18.8 µM | > 100 µM | 29.3 µM | 42.3 µM | 61.2 µM | 36.3 µM | 26.5 µM | 81.7 µM | 60.1 µM | 31.3 µM | – | – | –
C=CC[C@@]12CCC(=O)C=C1CCCC2=O | > 100 µM | > 100 µM | > 100 µM | > 100 µM | > 100 µM | > 100 µM | > 100 µM | > 100 µM | > 100 µM | > 100 µM | > 100 µM | > 100 µM | – | – | –
CCOC(=O)C(C)c1nc2cc(C(F)(F)F)ccc2[nH]c1=O (centres undefined) | > 100 µM | > 100 µM | > 100 µM | > 100 µM | > 100 µM | > 100 µM | > 100 µM | > 100 µM | > 100 µM | > 100 µM | > 100 µM | > 100 µM | – | – | –
O=c1[nH]c2cc3[nH]c(=O)c(=O)[nH]c3cc2[nH]c1=O | > 100 µM | > 100 µM | > 100 µM | > 100 µM | > 100 µM | > 100 µM | – | > 100 µM | > 100 µM | > 100 µM | > 100 µM | > 100 µM | – | – | –
O=C1CC2(CCNCC2)C(=O)N1N1CCCCC1 | > 100 µM | > 100 µM | > 100 µM | > 100 µM | > 100 µM | > 100 µM | > 100 µM | > 100 µM | > 100 µM | > 100 µM | > 100 µM | > 100 µM | – | – | –
CC(C(=O)O)C1Nc2ccccc2NC1=O (centres undefined) | > 100 µM | > 100 µM | > 100 µM | > 100 µM | > 100 µM | > 100 µM | – | > 100 µM | > 100 µM | > 100 µM | > 100 µM | > 100 µM | – | – | –
COc1ccc2cc(/C=N\NC(=O)Nc3ccc([N+](=O)[O-])cc3)ccc2c1 | 21.8 µM | 20.7 µM | 16.1 µM | 30.7 µM | 25 µM | 20.1 µM | 41.6 µM | 23.1 µM | 19.2 µM | > 31.6 µM | 44.1 µM | 14.4 µM | – | – | –
O=C(c1ccc(Cl)c(Cl)c1)N(C(=O)N1CCN(c2ccccc2)CC1)S(=O)(=O)c1ccccc1 | 41.8 µM | > 100 µM | > 100 µM | > 100 µM | 59.1 µM | > 100 µM | > 100 µM | > 100 µM | > 100 µM | > 100 µM | > 100 µM | > 100 µM | – | – | –
COC(=O)C1Cc2c([nH]c3ccccc23)-c2[nH]c3ccccc3c2CC(NC(C)=O)C(=O)NCC(=O)NCC(=O)N1 (centres undefined) | > 100 µM | > 100 µM | > 100 µM | > 100 µM | > 100 µM | > 100 µM | > 100 µM | > 100 µM | > 100 µM | > 100 µM | > 100 µM | > 100 µM | – | – | –
COC(=O)C(CC(C)C)NC(=O)CNC(=O)C(Cc1ccc(OCc2ccccc2)cc1)NC(=O)C(COCc1ccccc1)NC(=O)OC(C)(C)C (centres undefined) (Boc-S(Bn)Y(Bn)GL-OMe; configuration not given here) | > 100 µM | > 100 µM | > 100 µM | 39.7 µM | – | > 100 µM | > 100 µM | > 100 µM | > 100 µM | > 100 µM | > 100 µM | > 100 µM | – | – | –
O=S1(=O)c2ccccc2-c2nccc3ccnc1c23 | 6.87 µM | > 100 µM | 23.2 µM | > 100 µM | – | > 100 µM | > 100 µM | > 100 µM | 31.7 µM | > 100 µM | > 100 µM | > 100 µM | – | – | –
Cc1cc(C)nc(NS(=O)(=O)c2ccc(Nc3nnc(/C=C/c4c(O)ccc5ccccc45)c(=O)n3N)cc2)n1 | > 100 µM | > 100 µM | > 100 µM | 66.8 µM | 30.9 µM | 58.3 µM | > 100 µM | – | 60.1 µM | > 100 µM | 56 µM | – | – | – | –
